Source: patent US10112926B2 (priority 2014, dated 2018)
Structures can show the parent of a compound that is named as a salt.

Key:
Vps34 = Vps34 (Homo sapiens (Human), UniProt Q8NEB9); conditions: read-out: Assay C VPS34 IC50
mTOR = mTOR (Homo sapiens (Human), UniProt P42345); conditions: read-out: Assay G mTOR IC50
PI 4-kinase beta = PI 4-kinase beta (Homo sapiens (Human), UniProt Q9UBF8); conditions: read-out: Assay D PI4Kβ IC50
Chain of PI 4-kinase beta (Q9UBF8 whole entry): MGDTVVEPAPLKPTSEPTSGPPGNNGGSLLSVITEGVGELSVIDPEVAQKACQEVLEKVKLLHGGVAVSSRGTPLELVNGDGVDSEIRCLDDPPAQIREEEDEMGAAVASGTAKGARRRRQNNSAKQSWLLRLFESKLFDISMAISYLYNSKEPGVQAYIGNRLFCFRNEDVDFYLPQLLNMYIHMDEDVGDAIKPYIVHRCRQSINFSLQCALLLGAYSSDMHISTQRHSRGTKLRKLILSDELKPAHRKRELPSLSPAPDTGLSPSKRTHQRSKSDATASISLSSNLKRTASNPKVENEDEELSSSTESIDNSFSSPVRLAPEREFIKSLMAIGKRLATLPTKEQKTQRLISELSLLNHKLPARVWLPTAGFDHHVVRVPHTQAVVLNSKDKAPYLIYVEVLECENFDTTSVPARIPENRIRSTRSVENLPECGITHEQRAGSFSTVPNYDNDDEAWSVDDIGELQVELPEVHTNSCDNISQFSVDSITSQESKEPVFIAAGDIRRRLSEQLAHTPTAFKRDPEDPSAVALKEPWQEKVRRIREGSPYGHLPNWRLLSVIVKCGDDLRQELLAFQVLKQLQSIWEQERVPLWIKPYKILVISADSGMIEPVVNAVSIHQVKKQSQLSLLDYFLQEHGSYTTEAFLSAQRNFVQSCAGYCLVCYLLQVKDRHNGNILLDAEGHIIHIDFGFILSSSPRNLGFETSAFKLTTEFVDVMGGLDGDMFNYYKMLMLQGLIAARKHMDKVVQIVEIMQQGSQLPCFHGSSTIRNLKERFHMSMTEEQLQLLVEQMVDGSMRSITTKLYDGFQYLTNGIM

Chain of Vps34 (Q8NEB9 whole entry): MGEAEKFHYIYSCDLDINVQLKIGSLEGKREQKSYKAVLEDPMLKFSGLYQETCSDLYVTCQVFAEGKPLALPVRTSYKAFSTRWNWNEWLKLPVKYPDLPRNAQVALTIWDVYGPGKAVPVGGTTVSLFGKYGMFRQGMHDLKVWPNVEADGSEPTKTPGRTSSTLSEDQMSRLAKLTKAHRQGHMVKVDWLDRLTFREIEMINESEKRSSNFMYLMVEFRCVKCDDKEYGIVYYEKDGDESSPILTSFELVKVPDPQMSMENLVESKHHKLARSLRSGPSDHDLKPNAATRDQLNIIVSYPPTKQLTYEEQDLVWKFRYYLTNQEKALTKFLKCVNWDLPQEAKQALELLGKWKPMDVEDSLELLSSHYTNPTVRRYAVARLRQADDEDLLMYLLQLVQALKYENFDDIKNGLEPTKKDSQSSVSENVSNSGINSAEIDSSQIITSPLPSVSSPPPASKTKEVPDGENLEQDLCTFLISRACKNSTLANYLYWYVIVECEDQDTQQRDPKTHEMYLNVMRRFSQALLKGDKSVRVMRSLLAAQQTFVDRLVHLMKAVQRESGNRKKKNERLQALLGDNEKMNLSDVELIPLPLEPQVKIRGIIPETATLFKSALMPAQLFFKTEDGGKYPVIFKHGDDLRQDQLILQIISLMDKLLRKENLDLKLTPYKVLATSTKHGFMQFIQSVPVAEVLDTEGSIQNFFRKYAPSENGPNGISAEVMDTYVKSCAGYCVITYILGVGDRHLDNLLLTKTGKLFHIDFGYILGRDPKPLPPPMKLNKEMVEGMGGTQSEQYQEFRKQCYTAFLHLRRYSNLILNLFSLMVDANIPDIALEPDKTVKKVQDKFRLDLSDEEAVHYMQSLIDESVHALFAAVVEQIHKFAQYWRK

CCc1cc(-c2cc(-c3cc(S(=O)(=O)NCC(C)(C)O)ccc3C)cnc2N)on1 [Example 4.6, 3-(6-Amino-5-(3-ethylisoxazol-5-yl)pyridin-3-yl)-N-(2-hydroxy-2-methylpropyl)-4-methyl-benzenesulfonamide hydrochloride]
IC50 (Vps34): > 10 µM
IC50 (mTOR): 1.4 µM
IC50 (PI 4-kinase beta): 2.7 µM

Cc1ccc(S(=O)(=O)NCC(C)(C)O)cc1-c1cnc(N)c(-c2nc(C(F)F)no2)c1 [Example 71, 3-(6-Amino-5-(3-(difluoromethyl)-1,2,4-oxadiazol-5-yl)pyridin-3-yl)-N-(2-hydroxy-2-methylpropyl)-4-methylbenzenesulfonamide hydrochloride]
IC50 (mTOR): > 10 µM
IC50 (PI 4-kinase beta): 10 µM

Cc1ccc(S(=O)(=O)N[C@H]2CC[C@H](O)CC2)cc1-c1cnc(N)c(-c2cnn(CC(F)(F)F)c2)c1 [Example 4.2, trans 3-(6-Amino-5-(1-(2,2,2-trifluoroethyl)-1H-pyrazol-4-yl)pyridin-3-yl)-N-(4-hydroxycyclohexyl)-4-methyl-benzenesulfonamide]
IC50 (Vps34): > 10 µM
IC50 (mTOR): 1.3 µM
IC50 (PI 4-kinase beta): 0.65 µM

Cc1noc(-c2cc(-c3cc(S(=O)(=O)NCC4CCCO4)ccc3C)cnc2N)n1 (centres unmarked) [Example 57, 3-(6-Amino-5-(3-methyl-1,2,4-oxadiazol-5-yl)pyridin-3-yl)-4-methyl-N-((tetrahydrofuran-2-yl)methyl)benzenesulfonamide]
IC50 (mTOR): 2.4 µM
IC50 (PI 4-kinase beta): > 10 µM

Cc1cc(-c2cc(-c3cc(S(=O)(=O)N[C@H]4CC[C@H](CO)CC4)ccc3C)cnc2N)ccn1 [Example 77, trans-3-(2-Amino-2′-methyl-[3,4′-bipyridin]-5-yl)-N-(−4-(hydroxymethyl)cyclohexyl)-4-methylbenzenesulfonamide hydrochloride]
IC50 (Vps34): > 10 µM
IC50 (mTOR): > 10 µM
IC50 (PI 4-kinase beta): 2.1 µM

Cc1cc(-c2cc(-c3cc(S(=O)(=O)NO[C@H]4C[C@H](O)C4)ccc3C)cnc2N)on1 [Example 95, trans-3-(6-amino-5-(3-methylisoxazol-5-yl)pyridin-3-yl)-N-((1r,3r)-3-hydroxycyclobutoxy)-4-methylbenzenesulfonamide]
IC50 (Vps34): > 10 µM
IC50 (mTOR): > 10 µM
IC50 (PI 4-kinase beta): 0.86 µM

Cc1ncc(-c2cc(-c3cc(S(=O)(=O)N[C@H]4CC[C@H](O)CC4)ccc3C)cnc2N)s1 [Example 97, 3-(6-amino-5-(2-methylthiazol-5-yl)pyridin-3-yl)-N-((1r,4r)-4-hydroxycyclohexyl)-4-methylbenzenesulfonamide]
IC50 (Vps34): 3.8 µM
IC50 (mTOR): 6.5 µM
IC50 (PI 4-kinase beta): 1.34 µM

Cc1ccc(S(=O)(=O)NCC(C)(C)O)cc1-c1cnc(N)c(-c2nc(C(C)C)no2)c1 [Example 5.1, 3-(6-Amino-5-(3-isopropyl-1,2,4-oxadiazol-5-yl)pyridin-3-yl)-N-(2-hydroxy-2-methylpropyl)-4-methylbenzenesulfonamide hydrochloride]
IC50 (Vps34): > 10 µM
IC50 (mTOR): 8.2 µM
IC50 (PI 4-kinase beta): 4.4 µM

COC1(C)CN(S(=O)(=O)c2ccc(C)c(-c3cnc(N)c(-c4nc(C)no4)c3)c2)C1 [Example 37.2, 5-(5-((3-Methoxy-3-methylazetidin-1-yl)sulfonyl)-2-methylphenyl)-3-(3-methyl-1,2,4-oxadiazol-5-yl)pyridin-2-amine]
IC50 (mTOR): > 10 µM
IC50 (PI 4-kinase beta): > 10 µM

Cc1ccc(S(=O)(=O)N[C@H]2CC[C@H](O)CC2)cc1-c1cnc(N)c(-c2nc(C(F)F)no2)c1 [Example 70, 3-(6-Amino-5-(3-(difluoromethyl)-1,2,4-oxadiazol-5-yl)pyridin-3-yl)-N-((1r,4r)-4-hydroxycyclohexyl)-4-methylbenzenesulfonamide hydrochloride]
IC50 (Vps34): > 10 µM
IC50 (mTOR): > 10 µM
IC50 (PI 4-kinase beta): 8.2 µM

CCc1noc(-c2cc(-c3cc(S(=O)(=O)NCC(C)(C)O)ccc3C)cnc2N)n1 [Example 5.3, 3-(6-Amino-5-(3-ethyl-1,2,4-oxadiazol-5-yl)pyridin-3-yl)-N-(2-hydroxy-2-methylpropyl)-4-methylbenzenesulfon-amide hydrochloride]
IC50 (Vps34): > 10 µM
IC50 (mTOR): > 10 µM

Cc1noc(-c2cc(-c3cc(S(=O)(=O)NC4CCOCC4)ccc3C)cnc2N)n1 [Example 49, 3-(6-Amino-5-(3-methyl-1,2,4-oxadiazol-5-yl)pyridin-3-yl)-4-methyl-N-(tetrahydro-2H-pyran-4-yl)benzenesulfonamide]
IC50 (Vps34): > 10 µM
IC50 (mTOR): 8.1 µM
IC50 (PI 4-kinase beta): 6.8 µM

Cc1noc(-c2cc(-c3cc(S(=O)(=O)NCC(C)(C)CO)ccc3C)cnc2N)n1 [Example 37.18, 3-(6-Amino-5-(3-methyl-1,2,4-oxadiazol-5-yl)pyridin-3-yl)-N-(3-hydroxy-2,2-dimethylpropyl)-4-methylbenzenesulfonamide hydrochloride]
IC50 (Vps34): > 10 µM
IC50 (mTOR): > 10 µM
IC50 (PI 4-kinase beta): > 10 µM

Cc1noc(-c2cc(-c3cc(S(=O)(=O)NOC(C)(C)C)ccc3C)cnc2N)n1 [Example 47, 3-(6-Amino-5-(3-methyl-1,2,4-oxadiazol-5-yl)pyridin-3-yl)-N-(tert-butoxy)-4-methylbenzenesulfonamide]
IC50 (Vps34): > 10 µM
IC50 (mTOR): 4 µM
IC50 (PI 4-kinase beta): 4.4 µM

Cc1cc(-c2cc(-c3cc(S(=O)(=O)NCCO)ccc3C)cnc2N)on1 [Example 73, 3-(6-Amino-5-(3-methylisoxazol-5-yl)pyridin-3-yl)-N-(2-hydroxyethyl)-4-methylbenzenesulfonamide]
IC50 (Vps34): > 10 µM
IC50 (mTOR): > 10 µM

Cc1ncc(-c2cc(-c3cc(S(=O)(=O)NCCCO)ccc3C)cnc2N)s1 [Example 9, 3-[6-Amino-5-(2-methyl-thiazol-5-yl)-pyridin-3-yl]-N-(3-hydroxy-propyl)-4-methyl-benzenesulfonamide]
IC50 (Vps34): 0.89 µM
IC50 (mTOR): 5.9 µM
IC50 (PI 4-kinase beta): 1.92 µM

Cc1ccc(S(=O)(=O)NCC(C)(C)O)cc1-c1cnc(N)c(-c2cnoc2C)c1 [Example 62, 3-(6-Amino-5-(5-methylisoxazol-4-yl)pyridin-3-yl)-N-(2-hydroxy-2-methylpropyl)-4-methylbenzenesulfonamide]
IC50 (mTOR): > 10 µM
IC50 (PI 4-kinase beta): 6.6 µM

Cc1ccc(S(=O)(=O)NCC(C)(C)O)cc1-c1cnc(N)c(-c2nc(C3CC3)no2)c1 [Example 80, 3-(6-Amino-5-(3-cyclopropyl-1,2,4-oxadiazol-5-yl)pyridin-3-yl)-N-(2-hydroxy-2-methylpropyl)-4-methylbenzenesulfonamide hydrochloride]
IC50 (Vps34): > 10 µM
IC50 (mTOR): > 10 µM
IC50 (PI 4-kinase beta): 3.55 µM

Cc1noc(-c2cc(-c3cc(S(=O)(=O)NCCC(C)(C)O)ccc3C)cnc2N)n1 [Example 5, 3-[6-Amino-5-(3-methyl-[1,2,4]oxadiazol-5-yl)-pyridin-3-yl]-N-(3-hydroxy-3-methyl-butyl)-4-methyl-benzenesulfonamide hydrochloride]
IC50 (Vps34): > 9.55 µM
IC50 (mTOR): 6.5 µM
IC50 (PI 4-kinase beta): 4.9 µM

Cc1cccc(NS(=O)(=O)c2ccc(C)c(-c3cnc(N)c(-c4cnn(CC(F)(F)F)c4)c3)c2)n1 [Example 1, 3-{6-Amino-5-[1-(2,2,2-trifluoro-ethyl)-1H-pyrazol-4-yl]-pyridin-3-yl}-4-methyl-N-(6-methyl-pyridin-2-yl)-benzenesulfonamide]
IC50 (Vps34): > 9.1 µM
IC50 (mTOR): 2.37 µM
IC50 (PI 4-kinase beta): 1.95 µM

Cc1cc(-c2cc(-c3cc(S(=O)(=O)NCCC(C)(C)O)ccc3C)cnc2N)ccn1 [Example 16, 3-(2-Amino-2′-methyl-[3,4′]bipyridinyl-5-yl)-N-(3-hydroxy-3-methyl-butyl)-4-methyl-benzenesulfonamide]
IC50 (Vps34): > 9.1 µM
IC50 (mTOR): > 9.1 µM

Cc1cc(-c2cc(-c3cc(S(=O)(=O)NCC(C)(C)O)ccc3C)cnc2N)sn1 [Example 4.8, 3-(6-Amino-5-(3-methylisothiazol-5-yl)pyridin-3-yl)-N-(2-hydroxy-2-methylpropyl)-4-methyl-benzenesulfonamide hydrochloride]
IC50 (Vps34): > 10 µM
IC50 (mTOR): > 10 µM
IC50 (PI 4-kinase beta): 3.15 µM

Cc1noc(-c2cc(-c3cc(S(=O)(=O)NCCC4(O)CCCC4)ccc3C)cnc2N)n1 [Example 37.11, 3-(6-Amino-5-(3-methyl-1,2,4-oxadiazol-5-yl)pyridin-3-yl)-N-(2-(1-hydroxycyclopentyl)ethyl)-4-methylbenzenesulfonamide]
IC50 (Vps34): > 10 µM
IC50 (mTOR): > 10 µM
IC50 (PI 4-kinase beta): 8.1 µM

Cc1ccc(S(=O)(=O)NCC(C)(C)O)cc1-c1cnc(N)c(-c2cnn(C)n2)c1 [Example 4.4, 3-(6-amino-5-(2-methyl-2H-1,2,3-triazol-4-yl)pyridin-3-yl)-N-(2-hydroxy-2-methylpropyl)-4-methylbenzenesulfonamide hydrochloride]
IC50 (Vps34): > 10 µM
IC50 (mTOR): > 10 µM
IC50 (PI 4-kinase beta): 8.2 µM

Cc1noc(-c2cc(-c3cc(S(=O)(=O)NCC4(CO)CCCC4)ccc3C)cnc2N)n1 [Example 37.13, 3-(6-Amino-5-(3-methyl-1,2,4-oxadiazol-5-yl)pyridin-3-yl)-N-((1-(hydroxymethyl)cyclopentyl)methyl)-4-methylbenzenesulfonamide]
IC50 (Vps34): > 10 µM
IC50 (mTOR): > 10 µM
IC50 (PI 4-kinase beta): 5 µM

Cc1ncc(-c2cc(-c3cc(S(=O)(=O)N[C@H]4CC[C@H](O)CC4)ccc3C)cnc2N)o1 [Example 98, 3-(6-amino-5-(2-methyloxazol-5-yl)pyridin-3-yl)-N-((1r,4r)-4-hydroxycyclohexyl)-4-methylbenzenesulfonamide hydrochloride]
IC50 (mTOR): 7.9 µM
IC50 (PI 4-kinase beta): 0.83 µM

Cc1ncc(-c2cc(-c3cc(S(=O)(=O)NCCC(C)(C)O)ccc3C)cnc2N)s1 [Example 4, 3-(6-Amino-5-(2-methylthiazol-5-yl)pyridin-3-yl)-N-(3-hydroxy-3-methylbutyl)-4-methylbenzenesulfonamide]
IC50 (mTOR): 2.63 µM
IC50 (PI 4-kinase beta): 1.44 µM

Cc1noc(-c2cc(-c3cc(S(=O)(=O)NC4CC(O)C4)ccc3C)cnc2N)n1 (mixture of isomers) [Example 5.5, Diastereomers of 3-(6-Amino-5-(3-methyl-1,2,4-oxadiazol-5-yl)pyridin-3-yl)-N-(3-hydroxycyclobutyl)-4-methylbenzene sulfonamide hydrochloride]
IC50 (Vps34): > 10 µM
IC50 (mTOR): > 10 µM
